Results: article PMC11984392, “EphA2-targeted alpha-particle theranostics for enhancing PDAC treatment” (Theranostics, 2025)
*1 amine or outer side, *2 acyl side, *3 side chain or, on linkers, in order; H or OH if unused. Where a SMILES comes first, the peptide text is derived from it. Bridges are numbered along the chain shown (N, C = ends). [ ]: non-standard residue; d: D form. The star is where a group is joined. DOTA = O=C(O)CN1CCN(CC(=O)O)CCN(CC(=O)*)CCN(CC(=O)O)CC1; TATA = O=C(CC[*:1])N1CN(C(=O)CC[*:2])CN(C(=O)CC[*:3])C1; NOTA = O=C(O)CN1CCN(CC(=O)O)CCN(CC(=O)*)CC1; Hyp = O=C(O)[C@@H]1C[C@@H](O)CN1; hArg = N=C(N)NCCCC[C@H](N)C(=O)O; PEG2 = NCCOCCOCCC(=O)O; Sar = CNCC(=O)O

Key:
[1] = set-up: species or system C57BL/6 mice; conditions: mouse, in vivo
Method: Male C57BL/6 mice (5-6 weeks old) were used to establish syngeneic tumor by administering KPC cells subcutaneously in top right flank. For this study, 0.5 million cells were inoculated subcutaneously into the upper flank of each animal. Tumor growth was closely monitored, and once tumors became palpable, their volumes were measured using a vernier caliper. Animals were then randomized into groups to ensure balanced baseline tumor sizes, with median volumes of approximately 60 mm^3 (PBS group median: 60 mm^3; radiotherapeutic group median: 57 mm^3). Following randomization, two subsequent doses of 0.5 µCi of [^225Ac]AJ210 were administered intravenously with the interval of 24 h. Similarly, saline was administered in the control group. Measurements of tumor volume and body weight were conducted in alternative days until the end of study. Blood was collected retro-orbitally at 3-, 7- and 28-days post radiotherapy injection and hematological parameter were assessed using SCIL Vet ABC Plus instrument.
Tissue blocks and slides of liver, kidneys and lungs were prepared by JHU histology core and staining was also carried out by the Core. Briefly, tissue samples were fixed in formalin for 24 h and rinsed with PBS and stored in PBS. These tissue samples were dehydrated through graded ethanol series, cleared in xylene, and embedded in paraffin. Sections (4-5 µm thick) were cut using a microtome and mounted on glass slides. The slides were deparaffinized in xylene, rehydrated through graded ethanol to distilled water, and stained with hematoxylin for 5 min. After rinsing in running water, sections were differentiated in 1% acid alcohol, blued in ammonia water, and counterstained with eosin for 1-2 min. Slides were dehydrated, cleared in xylene, and mounted with a coverslip using a permanent mounting medium. Images were captured under a brightfield microscope to evaluate tissue structure and histopathological features.

Ex vivo biodistribution [2] = experiment: Ex vivo biodistribution; set-up: species or system NSG mice; conditions: both sexes, NSG, mouse, in vivo, 50 uCi, total radioactivity
Method: Animal studies were performed under Johns Hopkins University Animal Care and Use Committee (ACUC)-approved protocol (Principal investigator: Sridhar Nimmagadda, Ph.D. and Protocol number M021M175). Male and Female NSG mice (5-6 weeks old) were purchased from JHU immunocompromised core and used to establish xenografts by administering cells subcutaneously (top right flank, unless otherwise noted) to form various tumor models within 3-4 weeks. Following cell numbers were used: Panc1, AsPC1, BxPC3 (1 M), Hs766T and SU8686 (2 M), CFPAC and Panc1005 (5 M). Imaging or biodistribution studies (n = 3-5) were conducted on mice with tumor volumes of 100-200 mm^3. The Panc1 orthotopic tumor model was established by surgically implanting a 3-5 mm^3 section of Panc1 tumor xenograft directly onto the pancreas. The implanted tumors were allowed to grow and were ready for imaging after 10 days of implantation.
(§1) Mice with 100-200 mm^3 tumor volume were used for ex vivo biodistribution studies. For radiotracer pharmacokinetics and dosimetry studies, mice with Panc1 tumor xenograft received ~80 µCi (2.96 MBq) [^68Ga]AJ201 and were sacrificed at pre-determined time points (5, 30, 60, 90 and 120 min). All other mice were injected with ~50 µCi (1.85 MBq; 0.2 to 0.5 nmol) Ga-68 labeled radiotracer and were sacrificed at 60 min. The selected tissues were collected, weighed, counted, and their %ID/g values calculated for biodistribution analysis. For pharmacokinetics and dosimetry studies, selected tissues included blood, muscle, tumor, thymus, heart, lung, liver, pancreas, stomach, small intestine, large intestine, spleen, adrenals, kidney, bladder, femur, brain and tumor xenografts. For other studies, selected tissues were blood, muscle, tumor, heart, lung, liver, pancreas, small intestine, spleen, kidney.

Ex vivo biodistribution [3] = type: in vivo, mice; conditions: mouse, in vivo, 50 uCi, total radioactivity
Method: as §1

human EphA2 = target: T1, human EphA2 (Homo sapiens, UniProt P29317); experiment: SPR binding affinity (Biacore T200, CM5 chip); conditions: 25 °C, HBS-P + 0.1% DMSO, 1:1 kinetics model
T1 construct: purchased R&D systems 3035-A2
Method: (§2) All experiments were conducted using a Biacore T200 instrument (GE Healthcare Life Sciences) with a CM5 chip at 25 °C. His-tagged human EphA2 (R&D systems, catalog # 3035-A2, 56.9 kDa, 4.46 μM stock concentration) and mouse EphA2 (SinoBiological, cat.# 50586-M08H, 58 kDa, 8.6 μM stock concentration) were immobilized onto the CM5 chip. AJ201 (3328.8 Da, 10 mM stock concentration) and AJ210 (3072.5 Da, 10 mM stock concentration) were used as analyte to flow over the ligand immobilized surface. Flow Cell (FC) 1 was used as the reference for FC2, FC3 for FC4. Anti-His antibody (2 mg/ml stock concentration) was diluted (1:100 dilution, 0.02 mg/ml diluted concentration) in 10 mM sodium acetate buffer at pH 4.5 and immobilized on all FCs to a level of ~8000 to 11000 RU using the standard amine coupling chemistry. HBS-P (10 mM HEPES pH 7.4, 150 mM NaCl, 0.05% v/v surfactant P20) was used as the immobilization running buffer. Human EphA2 was diluted (1:5 dilution) in HBS-P captured onto FC2 to a level of ~750 RU. Mouse EphA2 was diluted (1:10 dilution) in HBS-P captured onto FC4 to a level of ~750 RU. HBS-P was used as the capture running buffer. The Rmax values assume 1:1 interaction mechanism. Overnight kinetics were performed for all analytes in the presence of HBS-P+0.1% DMSO. The flow rate of all analyte solutions was maintained at 50 μL/min. The contact and dissociation times used were 120s and 600s, respectively. Glycine solution (pH 1.5) was injected for 15 s for surface regeneration and fresh ligands were captured in the beginning of each injection cycle. Sensorgrams from the overnight kinetics was evaluated by using 1:1 kinetics model fitting.

mouse EphA2 = target: T2, mouse EphA2 (Mus musculus, UniProt Q03145); experiment: SPR binding affinity (Biacore T200, CM5 chip); conditions: 25 °C, HBS-P + 0.1% DMSO, 1:1 kinetics model
T2 construct: purchased SinoBiological 50586-M08H
Method: as §2

T1 sequence (P29317 25-534 limits assumed): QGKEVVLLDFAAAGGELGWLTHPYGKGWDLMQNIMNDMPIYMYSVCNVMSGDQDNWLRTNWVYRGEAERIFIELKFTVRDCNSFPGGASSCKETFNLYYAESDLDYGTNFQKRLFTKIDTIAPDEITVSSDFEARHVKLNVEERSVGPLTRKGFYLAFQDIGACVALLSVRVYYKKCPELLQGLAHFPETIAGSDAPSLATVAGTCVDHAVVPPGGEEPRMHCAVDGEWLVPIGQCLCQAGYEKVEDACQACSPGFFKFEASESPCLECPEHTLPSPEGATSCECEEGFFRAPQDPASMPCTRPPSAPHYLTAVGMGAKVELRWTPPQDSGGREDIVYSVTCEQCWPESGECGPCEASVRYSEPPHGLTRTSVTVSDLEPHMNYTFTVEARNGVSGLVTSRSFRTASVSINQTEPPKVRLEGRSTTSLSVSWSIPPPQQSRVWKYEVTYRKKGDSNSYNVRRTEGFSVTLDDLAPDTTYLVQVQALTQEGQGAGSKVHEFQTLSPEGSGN
T2 sequence (Q03145 26-535 limits assumed): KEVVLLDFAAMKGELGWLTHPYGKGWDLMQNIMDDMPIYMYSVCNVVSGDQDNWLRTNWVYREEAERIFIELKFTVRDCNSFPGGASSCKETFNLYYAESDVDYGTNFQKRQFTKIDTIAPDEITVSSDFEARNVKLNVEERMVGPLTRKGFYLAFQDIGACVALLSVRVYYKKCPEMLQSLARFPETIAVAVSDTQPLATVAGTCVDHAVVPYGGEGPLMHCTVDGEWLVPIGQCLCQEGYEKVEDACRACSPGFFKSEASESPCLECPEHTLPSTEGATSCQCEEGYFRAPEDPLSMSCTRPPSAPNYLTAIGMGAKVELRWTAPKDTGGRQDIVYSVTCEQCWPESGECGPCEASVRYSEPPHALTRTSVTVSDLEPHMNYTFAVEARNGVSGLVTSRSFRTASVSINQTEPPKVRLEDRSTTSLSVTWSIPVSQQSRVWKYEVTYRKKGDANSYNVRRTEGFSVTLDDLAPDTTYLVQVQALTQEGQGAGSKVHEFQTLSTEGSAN

CC(C)C[C@@H]1NC(=O)[C@@H]2CSCCC(=O)N3CN(CN(C3)C(=O)CCSC[C@H](NC(=O)[C@H](CC(=O)O)NC(=O)[C@H](CCCCNC(=N)N)NC(=O)[C@H](C)NC(=O)CNC(=O)CNC(=O)CNC(=O)CNC(=O)CNC(=O)CN3CCN(CC(=O)O)CCN(CC(=O)O)CCN(CC(=O)O)CC3)C(=O)N3C[C@H](O)C[C@H]3C(=O)N[C@@H](CC(C)C)C(=O)N[C@@H](C(C)C)C(=O)N[C@@H](CC(N)=O)C(=O)N3CCC[C@H]3C(=O)N[C@@H](CC(C)C)C(=O)N2)C(=O)CCSC[C@@H](C(N)=O)NC(=O)[C@H](CCCCNC(=N)N)NC(=O)[C@H](Cc2c[nH]c3ccccc23)NC(=O)[C@@H](CC(=O)O)NC(=O)[C@@H]2CCCN2C(=O)[C@H](Cc2c[nH]cn2)NC1=O [[^225Ac]AJ210, metal not drawn] ({DOTA}-GGGGGA[hArg]DC[Hyp]LVNPLCLHP[dD]W[hArg]C-NH2; linker 9-16-23 via TATA)
H&E histology of kidney [1]: no significant pathological changes
H&E histology of liver [1]: no significant pathological changes
H&E histology of lungs [1]: no significant pathological changes
H&E staining of lung, liver and kidney sections [1]: no visible histological abnormalities

CC(C)C[C@@H]1NC(=O)[C@@H]2CSCCC(=O)N3CN(CN(C3)C(=O)CCSC[C@H](NC(=O)[C@H](CC(=O)O)NC(=O)[C@H](CCCCNC(=N)N)NC(=O)[C@H](C)NC(=O)CNC(=O)CNC(=O)CNC(=O)CNC(=O)CNC(=O)CN3CCN(CC(=O)O)CCN(CC(=O)O)CCN(CC(=O)O)CC3)C(=O)N3C[C@H](O)C[C@H]3C(=O)N[C@@H](CC(C)C)C(=O)N[C@@H](C(C)C)C(=O)N[C@@H](CC(N)=O)C(=O)N3CCC[C@H]3C(=O)N[C@@H](CC(C)C)C(=O)N2)C(=O)CCSC[C@@H](C(N)=O)NC(=O)[C@H](CCCCNC(=N)N)NC(=O)[C@H](Cc2c[nH]c3ccccc23)NC(=O)[C@@H](CC(=O)O)NC(=O)[C@@H]2CCCN2C(=O)[C@H](Cc2c[nH]cn2)NC1=O [[^68Ga]AJ210, metal not drawn] ({DOTA}-GGGGGA[hArg]DC[Hyp]LVNPLCLHP[dD]W[hArg]C-NH2; linker 9-16-23 via TATA)
tissue uptake at 1 h (Ex vivo biodistribution [2]; Blood uptake): 0.96 ± 0.33 %ID/g
tissue uptake at 1 h (Ex vivo biodistribution [2]; Femur uptake): 0.38 ± 0.08 %ID/g
tissue uptake at 1 h (Ex vivo biodistribution [2]; Heart uptake): 0.84 ± 0.14 %ID/g
tissue uptake at 1 h (Ex vivo biodistribution [2]; Kidney uptake): 24.4 ± 9.98 %ID/g
tissue uptake at 1 h (Ex vivo biodistribution [2]; Liver uptake): 0.34 ± 0.06 %ID/g
tissue uptake at 1 h (Ex vivo biodistribution [2]; Lung uptake): 0.39 ± 0.08 %ID/g
tissue uptake at 1 h (Ex vivo biodistribution [2]; Muscle uptake): 0.4 ± 0.16 %ID/g
tissue uptake at 1 h (Ex vivo biodistribution [2]; Pancreas uptake): 0.3 ± 0.08 %ID/g
tissue uptake at 1 h (Ex vivo biodistribution [2]; Small intestine uptake): 0.62 ± 0.22 %ID/g
tissue uptake at 1 h (Ex vivo biodistribution [2]; Spleen uptake): 0.74 ± 0.22 %ID/g
tissue uptake at 1 h (Ex vivo biodistribution [2]; Stomach uptake): 0.09 ± 0.03 %ID/g
tissue uptake at 1 h (Ex vivo biodistribution [2]; Tumor uptake): 3.72 ± 0.66 %ID/g
tissue to tissue ratio at 1 h (Ex vivo biodistribution [2]; Tumor/Muscle ratio): 10.3 ± 4.01
tissue to tissue ratio at 1 h (Ex vivo biodistribution [2]; Tumor/Pancreas ratio): 13.1 ± 4.11
tissue to tissue ratio at 1 h (Ex vivo biodistribution [2]; Tumor/blood ratio): 4.09 ± 0.97
tissue uptake at 1 h (Ex vivo biodistribution [3]; Blood uptake): 0.56 ± 0.14 %ID/g
tissue uptake at 1 h (Ex vivo biodistribution [3]; Femur uptake): 0.29 ± 0.07 %ID/g
tissue uptake at 1 h (Ex vivo biodistribution [3]; Heart uptake): 0.24 ± 0.05 %ID/g
tissue uptake at 1 h (Ex vivo biodistribution [3]; Kidney uptake): 59.9 ± 16.4 %ID/g
tissue uptake at 1 h (Ex vivo biodistribution [3]; Liver uptake): 0.26 ± 0.05 %ID/g
tissue uptake at 1 h (Ex vivo biodistribution [3]; Lung uptake): 0.57 ± 0.13 %ID/g
tissue uptake at 1 h (Ex vivo biodistribution [3]; Muscle uptake): 0.19 ± 0.04 %ID/g
tissue uptake at 1 h (Ex vivo biodistribution [3]; Pancreas uptake): 0.24 ± 0.06 %ID/g
tissue uptake at 1 h (Ex vivo biodistribution [3]; Small intestine uptake): 0.64 ± 0.47 %ID/g
tissue uptake at 1 h (Ex vivo biodistribution [3]; Spleen uptake): 0.35 ± 0.07 %ID/g
tissue uptake at 1 h (Ex vivo biodistribution [3]; Stomach uptake): 0.17 ± 0.07 %ID/g
tissue uptake at 1 h (Ex vivo biodistribution [3]; Tumor uptake): 1.06 ± 0.25 %ID/g
tissue to tissue ratio at 1 h (Ex vivo biodistribution [3]; Tumor/Muscle ratio): 5.61 ± 0.69
tissue to tissue ratio at 1 h (Ex vivo biodistribution [3]; Tumor/Pancreas ratio): 4.65 ± 1.46
tissue to tissue ratio at 1 h (Ex vivo biodistribution [3]; Tumor/blood ratio): 1.94 ± 0.44

CC(C)C[C@@H]1NC(=O)[C@@H]2CSCCC(=O)N3CN(CN(C3)C(=O)CCSC[C@H](NC(=O)[C@H](CC(=O)O)NC(=O)[C@H](CCCCNC(=N)N)NC(=O)[C@H](C)NC(=O)CNC(=O)CN(C)C(=O)CN(C)C(=O)CN(C)C(=O)[C@H](CCCNC(=N)N)NC(=O)CNC(=O)CCOCCOCCNC(=O)CN3CCN(CC(=O)O)CCN(CC(=O)O)CC3)C(=O)N3C[C@H](O)C[C@H]3C(=O)N[C@@H](CC(C)C)C(=O)N[C@@H](C(C)C)C(=O)N[C@@H](CC(N)=O)C(=O)N3CCC[C@H]3C(=O)N[C@@H](CC(C)C)C(=O)N2)C(=O)CCSC[C@@H](C(N)=O)NC(=O)[C@H](CCCCNC(=N)N)NC(=O)[C@H](Cc2c[nH]c3ccccc23)NC(=O)[C@@H](CC(=O)O)NC(=O)[C@@H]2CCCN2C(=O)[C@H](Cc2c[nH]cn2)NC1=O [AJ201] ({NOTA-PEG2}-GR[Sar][Sar][Sar]GA[hArg]DC[Hyp]LVNPLCLHP[dD]W[hArg]C-NH2; linker 10-17-24 via TATA)
koff (human EphA2): 0.00133 s⁻¹
kon (human EphA2): 7.6e+06 M⁻¹ s⁻¹
koff (mouse EphA2): 0.00302 s⁻¹
kon (mouse EphA2): 5.03e+06 M⁻¹ s⁻¹
